Patent US10694746B2, “Fungicidal composition” (JIANGSU HUIFENG BIO AGRICULTURE CO., LTD., priority 2016, dated 2020)
Converted amounts (≈) assume the structure as drawn.

What was measured:
Format in all cases: in vivo
apple anthracnose = assay: Toxicity test of BBIT combined with mancozeb on apple anthracnose (bioassay); conditions: for ATI (actual toxicity index): (EC50 of standard/EC50 of test agent)*100, standard BBIT; for EC50: apple anthracnose
cucumber downy mildew = assay: Toxicity test of BIT combined with mancozeb on cucumber downy mildew (bioassay); conditions: for ATI (actual toxicity index): (EC50 of standard/EC50 of test agent)*100, standard BIT; for EC50: cucumber downy mildew
potato late blight = conditions: for ATI (actual toxicity index): (EC50 of standard/EC50 of test agent)*100, standard MBIT; for EC50: potato late blight

| Compound | ATI (actual toxicity index) (apple anthracnose) | EC50 (apple anthracnose) [µg/mL] | ATI (actual toxicity index) (cucumber downy mildew) | EC50 (cucumber downy mildew) [µg/mL] | ATI (actual toxicity index) (potato late blight) | EC50 (potato late blight) [µg/mL] |
| --- | --- | --- | --- | --- | --- | --- |
| CCCCn1sc2ccccc2c1=O [BBIT, 2-n-butyl-1,2-benzisothiazolin-3-one] | 100 | 19.09 | – | – | – | – |
| O=c1[nH]sc2ccccc12 [BIT, 1,2-benzisothiazolin-3-one] | – | – | 100.00 | 13.5 | – | – |
| Cn1sc2ccccc2c1=O [MBIT, 2-methyl-1,2-benzisothiazolin-3-one] | – | – | – | – | 100.00 | 14.81 (≈ 89.6 µM) |
| mancozeb | 20.67 | 92.36 | 17.96 | 75.17 | 21.69 | 68.27 |
